Measurements reported in patent publication US20240075027A1, “REPOSITIONING THE ANTI-LEPROSY DRUG CLOFAZIMINE AGAINST DRUG-RESISTANT MYELOMA AND PUTATIVE STEM-CELL SUBCLONES” (Auburn University, priority 2022, published 2024).
pEC50, pIC50: −log10 of the molar value. Read-outs that look alike come from different tables or passages of the source.

Assays:
[1] = system: Side population (SP) cells in PI-resistant HMCLs; test: Side population analysis (DyeCycle Violet); format: cell-based, human
Description: Side population cells were investigated using DyeCycle™ Violet (cell-permeable DNA binding) assays according to manufacturer's instructions (Thermofisher). […] After 96 h, cells were stained with 10 μM Vybrant™ DyeCycle™ Violet (DCV; Molecular Probes, Eugene, OR) for 90 min at 37° C. Samples incubated with 100 μM verapamil (Sigma-Aldrich) for 30 min were used as positive control. Following dye incubation, cells were washed twice with ice-cold PBS, chilled on ice, and immediately analyzed by flow cytometry.

[2] = system: HMCLs and patient primary myeloma cells; test: Mass cytometry (CyTOF) single-cell proteomics; format: cell-based, human
Description: Mass cytometry (CyTOF) analysis is a single-cell proteomics methodology that combines flow cytometry and elemental mass spectrometry. Thirty-seven antibody targets directed against cell surface (neoplastic myeloma) and intracellular markers (immune tumor microenvironment) were utilized for immunophenotyping panels. The antibody markers and respective metal conjugates are described in Table 2. One to three million untreated or treated (for 24 h) HMCLs or primary human myeloma cells were used for CyTOF staining. Cells were stained with cisplatin (1:10,000 dilutions in RPMI1640 media without FBS) at 37° C. for 5 minutes, washed with media with 10% FBS, spun at 300×g, and incubated with media with 10% FBS for 15 min. This was followed by another wash, spin, and the pellet was resuspended in 1× Fix buffer for 10 minutes at room temperature. HMCL samples, along with lyophilized healthy human PBMC (Veri-Cells PBMC: control cells; BioLegend), were washed using Maxpar cell staining buffer (MCSB) (Fluidigm). A total of 16 μL of the surface antibody cocktail was added to each tube containing each cell suspension in 100 μL of MCSB and incubated for 30 minutes at room temperature. Cells were washed with MCSB to remove excess antibodies and stored overnight at −80° C. after methanol fixation. Cells were washed with MCSB and incubated with 20 μL of intracellular antibody cocktail for 30 minutes at room temperature, followed by wash and fixation with fresh 1.6% formaldehyde solution for 10 minutes at room temperature. Cells were washed with MCSB and resuspended in 1 ml of Cell-ID™ Intercalator solution (1:4000 dilution in permeabilization buffer, Maxper Fix, and Perm Buffer). All samples were barcoded using cell-ID™ 20-Plex Barcoding Kit (Fluidigm), which were then stained, washed with MSCB, and acquired as a single multiplexed sample using Maxpar Cell Acquisition solution contained calibration beads.
Samples were loaded onto a Helios CyTOF system (Fluidigm) using an attached autosampler and were acquired at a rate of 200-400 events per second. Data were collected as .FCS files using the CyTOF Software (Version 6.7.1014, Fluidigm). After acquisition, intrafile signal drift was normalized to the acquired calibration bead signal using the CyTOF Software.
For CyTOF data analysis, Cytobank software version 7.3.0 (Santa Clara, CA) was used for cleanup of cell debris, removal of doublets and dead cells, and analysis of cleaned fcs files. Clustering, dimensionality reduction (to 10,000 events per file), and the visualization of cell population cluster map were performed by t-SNE. Relative marker intensities and cluster abundances per sample were visualized by a heatmap.

[3] = system: RPMI8226P/VR cells; test: Mitochondrial membrane potential (JC-1); format: cell-based, human; settings: 24 h
Description: CLF-treated (24 h) cells were incubated with 5 μM JC-1 dye for 15 min in the dark at 37° C. and washed twice in PBS, and then analyzed for red and green fluorescence by flow cytometry.

[4] = system: apoptotic, ER stress, autophagy and survival proteins in myeloma cells; test: Western blotting (immunoblotting) pre- vs post-treatment; format: cell-based, human
Description: Cells treated with CLF, PI, or IMiD as single-agent or as a combination for 24 h were harvested, washed, and lysed using radioimmunoprecipitation assay (RIPA) lysis buffer containing 50 mM Tris-HCl, pH 7.5, 150 mM NaCl, 1% NP40, 5 mM EDTA, 1 mM DTT, phosphatase and […] cocktail (Sigma), and incubated on ice for 15 min. Samples were then centrifuged at 14,000 rpm at 4° C. for 30 mins. The supernatant was then aspirated, total protein was isolated and quantified using Pierce BCA Protein Assay Kit (Thermo Scientific). Samples were solubilized in SDS-PAGE sample buffer, and equal amounts of protein were loaded per lane of 10% SDS polyacrylamide gels and transferred onto PVDF membranes (Millipore; Billerica, MA). Membranes were blocked in TBS with SuperBlock® blocking buffer (Thermo Fisher). Membranes were then incubated with primary antibodies and secondary antibodies in TBS with 0.2% Tween® 20 and 2.5% BSA. Immunoreactivity was detected by Chemiluminescent HRP Substrate (Bio-Rad), and the exposed image was captured using a ChemiDoc MP Imaging System (Bio-Rad). Densitometry analysis was performed (in triplicates) using Image J software.

[5] = cited from earlier work
[6] = system: RPMI8226P/VR cells; test: Superoxide levels (DHE flow cytometry); format: cell-based, human; settings: 24 h
Description: Myeloma cells treated with CLF-based regimens for 24 h were incubated with 2.5 μM DHE (in RPMI) for 15 min in the dark at 37° C. Cells were then washed once with PBS, and red fluorescence was detected by flow cytometry.

[7] = system: HMCLs; test: Apoptosis assay (Annexin V-FITC flow cytometry); format: cell-based, human
Description: Cells were cultured for 48 h in the presence of indicated concentrations of compounds, harvested and washed, and incubated with Annexin V-FITC (BD Biosciences) and Propidium Iodide for 15 min at room temperature in the dark. Apoptosis was measured by BD LSR II flow cytometry (BD Biosciences).

[8] = system: bone marrow-derived CD138+ primary myeloma cells (PMCs); test: Ex vivo direct-to-drug screening assay (CellTiter-Glo); format: cell-based; settings: Homo sapiens, single-agent
Description: Bone marrow-derived CD138+ primary myeloma cells were obtained from patients (n=16) and used as ex vivo model systems. Written informed consent was received from participants prior to inclusion in the study. Participants have been identified by number, not by name. The primary samples were cultured as total bone marrow and put in culture to retain the patients' natural BM microenvironment. Cells of interest were CD138+-gated during analysis. The drugs were screened in a 7-point, 10-fold dilution, with the highest concentration at 10 μM, and incubated for 24 h. Anti-MM activity was assessed through cellular viability, evaluated with CellTiter-Glo®. The mid-point EC50, percentage of maximum inhibition was calculated using the TIBCO Spotfire® v.7.0.0 software, and the area under the curve (AUC) was calculated with the GraphPad Prism v.8 software (Bonolo de Campos et al., 2020, Blood Cancer J., 10:54).

[9] = system: ALDH+ myeloma cells; test: Aldefluor (ALDH) activity assay; format: cell-based, human; settings: 24 h
Description: Aldehyde dehydrogenase (ALDH) activity was assessed using the Aldefluor™ assay kit according to the manufacturer's instructions (Stem Cell Technologies). Briefly, 1×10^6 myeloma cells were treated with CLF-based regimens for 24 h, harvested, and resuspended in 1 ml Aldefluor™ assay buffer containing the ALDH substrate BODIPY-aminoacetaldehyde (BAAA). Negative control samples were treated with 5 μl of diethylaminobenzaldehyde (DEAB) as an inhibitor of ALDH1 enzymatic activity. Cells were incubated for 30-45 min at 37° C., then washed twice, and suspended in Aldefluor™ assay buffer. The brightly fluorescent ALDH+ cells were detected by BD LSR II flowcytometry.

[10] = system: HMCLs (RPMI826 P/VR and U266 P/VR); test: Colony-forming cells (CFCs) assay (Methocult); format: cell-based, human
Description: Colony formation potential of untreated and drug-treated HMCLs was accessed using Methylcellulose-based assay according to manufacturer's instructions (Methocult, Stem Cell Technologies). Briefly, myeloma cells were treated with either CLF alone or in combination with PI for the indicated time period. Following incubation, cells were harvested, washed with PBS, and methylcellulose-based media (Methocult) was added to cells pellets, and colonies were allowed to grow for 4 weeks in 6-well plates. Images were captured after 4 weeks with an inverted microscope (Olympus, 4×/20× lens with color camera), and cell colony numbers were counted by Image J software (NIH).

[11] = system: caspase-3/7 activity in HMCLs; test: Caspase-Glo 3/7 luminescent assay; format: cell-based, human
Description: Caspase-3/7 activity assays were performed on the HMCLs using Caspase-Glo 3/7 luminescent assay kit according to manufacturer's instructions (Promega Madison, WI). Briefly, 1×10^6 cells/ ml were cultured in 6-well plates and treated with either CLF alone and/or combination for indicated times. After harvesting, cells were washed twice with cold PBS and resuspended with Caspase-Glo 3/7 reagents. Reactions were incubated for 1 h at 37° C., and luminescence was determined using Synergy 2 Microplate Reader (Biotek). Cell death by apoptosis was also measured by immunoblotting analysis.

[12] = system: human myeloma cell lines (HMCLs); test: Drug synergy analysis (Calcusyn, Chou-Talalay combination index); format: cell-based; settings: CLF in combination with PI or IMiD
Description: (§1) HMCLs were treated with increasing concentrations of CLF, PIs (represented by Ix), and IMiDs (represented by Len) as single agents or in combination for 48 h, and cytotoxicity assays were performed using CellTiter-Glo® Luminescent cell viability assay (Promega Madison, WI). Luminescence was recorded in a Neo2 Microplate Reader (Biotek), and half-maximal inhibitory concentration (IC50) values were determined by calculating the nonlinear regression using the sigmoidal dose-response equation (variable slope). The drug cytotoxicity data and IC50 values were used to compare response and to determine synergy by Calcusyn software (Biosoft; Chou-Talalay's CI theorem) (Chou, 2011, Am J Cancer Res, 1: 925-54). CI value <0.9 denotes synergism.

[13] = system: human myeloma cell lines (HMCLs); test: In vitro chemosensitivity assay (CellTiter-Glo cell viability); format: cell-based; settings: single-agent
Source text: A large panel of HMCLs representing innate sensitivity and resistance to PIs and IMiDs (similar to refractory disease) have been compiled, as well as >10 pairs of parental and clonally-derived PI/IMiD-resistant HMCLs (P vs R pairs; generated using dose escalation over a period of time) representing acquired or emerging drug resistance, and encompassing the broad spectrum of biological and genetic heterogeneity of myeloma (Mitra et al., 2017, Blood Cancer J., 7:e581). The human myeloma cell lines (HMCLs) were obtained as previously described (Mitra et al., 2017, Blood Cancer J., 7:e581). The clonally related acquired PI-resistant HMCLs were generated from parental cell lines by dose escalation of bortezomib using pulses of once-weekly bortezomib treatment as described previously (Mitra et al., 2016, Leukemia., 30:1094-1102). […]
as §1, with “The drug cytotoxicity data and IC50 values were used to compare response and to determine synergy by Calcusyn software (Biosoft; Chou-Talalay's CI theorem) (Chou, 2011, Am J Cancer Res, 1: 925-54). CI value <0.9 denotes synergism.” left out

[14] = system: RPMI8226P, RPMI8226VR, U266P, and U266VR cells; test: CFSE assay of quiescent CD138+ cells; format: cell-based, human; settings: parental and clonally derived PI-resistant cells
Description: For assessing apoptosis in quiescent CD138+ cells, myeloma cells were first stained with carboxyfluorescein succinimidyl ester (CFSE; Invitrogen) for 30 min, then washed and resuspended in RPMI1640 medium and were incubated at 37° C. overnight. The next day, cells were treated and maintained further for 4 days with supplementation of the drugs every 48 h.

[15] = HMCLs and patient-derived primary cells, irrespective of PI- or IMiD-resistance

With `CC(C)/N=c1\cc2n(-c3ccc(Cl)cc3)c3ccccc3nc-2cc1Nc1ccc(Cl)cc1` [CLF, clofazimine] the “side population (SP)” value [1] was “reduced SP”, the “cleaved caspase-3 levels (CyTOF)” value [2, 15] was “elevated cleaved caspase-3 levels” and the “marker expression (CyTOF)” value [2, 15] was “downregulation of pS6, IRF4, pCREB, pRB, IKZF1”. For the same molecule, the “cleaved caspase levels (CyTOF)” value ([2]; all cell lines and primary samples, cluster enriched for cells exposed to high dose CLF) was “elevated cleaved caspase levels”, the “myeloma survival markers incl. IRF4, IKZF1, IKZF3, CD229, CD27, pS6, pERK, IkBa (CyTOF and immunoblotting)” value ([2]; pre- vs post-treatment) was “shifts in a majority of these markers” and the “mitochondrial membrane potential (JC-1)” value [3] was “mitochondrial membrane depolarization”. For the same molecule, the “ER stress pathway and autophagy proteins” value ([4]; IRE1, PERK, ATF6, mRNA sequencing, IPA and Western blotting) was “induces the proteins involved ER stress pathway”, the “anti-apoptotic/survival markers and Bax expression” value ([4]; Western blotting) was “decrease in the anti-apoptotic/survival markers Bcl2, Mcl-1 and increase in Bax expression” and the “caspase activation (Western blotting)” value ([4]; caspase-3, 8, 9) was “activated caspase-3 and 9 but not 8”. For the same molecule, the “STAT and HIF-1α expression” value ([4]; myeloma, FIG. 3D densitometry) was “downregulation of STATS and HIF-1α”, the safe dose range ([5]; corresponds to human plasma Cmax) was 0.84 to 8.4 µM and the “human plasma Cmax” value ([5]; human plasma) was 400 to 4000 ng/mL. The “cellular superoxide anions (DHE)” value [6] was “induction of cellular superoxide anions”, the “apoptosis (annexin V staining)” value ([7]; CLF alone) was “significant apoptosis” and the “apoptosis (annexin V staining)” value ([7]; in combination with 15 nm ixazomib) was “significant apoptosis”. For the same molecule, the pEC50 ([8]; ex vivo, patients n=12, read-out: maximum EC50) was 4.82, the pEC50 ([8]; ex vivo, patients n=12, read-out: median EC50) was 5.62 and the pEC50 ([8]; ex vivo, patients n=12, read-out: minimum EC50) was 5.98. For the same molecule, the pEC50 ([8]; patients n=12, range, read-out: ex vivo CLF EC50 values) was 4.82 to 6.00, the ALDH activity [9] was “significant decrease in ALDH activity” and the colony formation ([10]; PI-resistant lines (RPMI826 P/VR and U266 P/VR)) was “significantly reduced colony formation”. The “colony number and colony size” value ([10]; compared to control or ixazomib) was “significantly reduced colony number as well as colony size”, the “caspase-3 activity (Caspase 3/7 assay)” value [11] was “induced caspase-3 activity” and the “therapeutic index / amount of PI/IMiD required (dose reduction index, predicted decrease in IC50)” value [12] was “decreased the amount of PI/IMiD required to achieve effective responses”. For the same molecule, the pIC50 ([13]; Homo sapiens, 48 h, panel of sensitive, innate and clonally-derived resistant HMCLs) was 4.69 to 6.70, the “anti-myeloma potency compared with other PPARg agonists (rosiglitazone, pioglitazone)” value [13] was “most potent among all the PPARg agonists tested” and the “apoptosis in CFSEbright and CFSEdim cells” value [14] was “caused apoptosis in both CFSEbright and CFSEdim cells”. The “number of CFSE-bright (non-dividing) cells” value [14] was “significantly reduced their number”.
